Experimental data reported in ChEMBL document CHEMBL1201862, “PubChem BioAssay data set” (2004).
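A five-concentration, 48-hour dose response in 96-well plates underlies each endpoint, interpolated linearly between surrounding concentrations. GI50 marks 50% less growth.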 Calls of active or inactive are those of the source. No stated cut-off is given here; in the data, active = GI50 up to about 1.1 µM and inactive = higher.

What was measured:
Test in all cases: growth of human tumour cells (NCI), 48 h
[1] = test system: 786-0
[2] = test system: A498
[3] = test system: A549
[4] = test system: ACHN
[5] = test system: CAKI-1
[6] = test system: CCRF-CEM
[7] = test system: COLO 205
[8] = test system: DLD-1
[9] = test system: DMS-114
[10] = test system: DMS-273
[11] = test system: EKVX
[12] = test system: HCT-116
[13] = test system: HCT-15
[14] = test system: HL-60
[15] = test system: HOP-18
[16] = test system: HOP-62
[17] = test system: HOP-92
[18] = test system: HT-29
[19] = test system: IGROV-1
[20] = test system: K562
[21] = test system: KM-20L2
[22] = test system: KM12
[23] = test system: LOX IMVI
[24] = test system: LXFL 529
[25] = test system: M14
[26] = test system: M19-MEL
[27] = test system: MOLT-4
[28] = test system: Malme-3M
[29] = test system: NCI-H23
[30] = test system: NCI-H460
[31] = test system: NCI-H522
[32] = test system: OVCAR-3
[33] = test system: OVCAR-4
[34] = test system: OVCAR-5
[35] = test system: OVCAR-8
[36] = test system: RPMI-8226
[37] = test system: RXF 393
[38] = test system: RXF 631
[39] = test system: SF-268
[40] = test system: SF-295
[41] = test system: SF-539
[42] = test system: SK-MEL-28
[43] = test system: SK-MEL-2
[44] = test system: SK-MEL-5
[45] = test system: SK-OV-3
[46] = test system: SN12C
[47] = test system: SNB-19
[48] = test system: SNB-75
[49] = test system: SNB-78
[50] = test system: SW-620
[51] = test system: TK-10
[52] = test system: U-251
[53] = test system: UACC-257
[54] = test system: UACC-62
[55] = test system: UO-31
[56] = test system: XF498
[57] = test system: HCC 2998
[58] = test system: NCI-H226
[59] = test system: SR

With N=C(N)NS(=O)(=O)c1ccc(NC(=O)c2cccc3c(Nc4ccc(S(=O)(=O)N=C(N)N)cc4)c4ccccc4nc23)cc1 the GI50 [1] was 50.9 µM (inactive), the GI50 [2] was 47.4 µM (inactive) and the GI50 [3] was 79.1 µM (inactive). For the same molecule, the GI50 [4] was 51.1 µM (inactive), the GI50 [5] was > 10 µM (inactive) and the GI50 [6] was 43.9 µM (inactive). The GI50 [7] was 31.3 µM (inactive), the GI50 [8] was 92.9 µM (inactive) and the GI50 [9] was 24.9 µM (inactive). The GI50 [10] was 55.2 µM (inactive), the GI50 [11] was 71 µM (inactive) and the GI50 [12] was 38 µM (inactive). For the same molecule, the GI50 [13] was greater than 100 µM, the GI50 [14] was 27 µM (inactive) and the GI50 [15] was > 100 µM (inactive). For the same molecule, the GI50 [16] was > 100 µM (inactive), the GI50 [17] was > 100 µM (inactive) and the GI50 [18] was 42.1 µM (inactive). For the same molecule, the GI50 [19] was 70.5 µM (inactive), the GI50 [20] was 5.98 µM (inactive) and the GI50 [21] was 37.5 µM (inactive). For the same molecule, the GI50 [22] was 33.4 µM (inactive), the GI50 [23] was 43.3 µM (inactive) and the GI50 [24] was 26.5 µM (inactive). For the same molecule, the GI50 [25] was 50.8 µM (inactive), the GI50 [26] was 47.4 µM (inactive) and the GI50 [27] was 35.7 µM (inactive). For the same molecule, the GI50 [28] was > 100 µM (inactive), the GI50 [29] was 44.3 µM (inactive) and the GI50 [30] was > 100 µM (inactive). The GI50 [31] was 7.94 µM (inactive), the GI50 [32] was 50.1 µM (inactive) and the GI50 [33] was 26.6 µM (inactive). For the same molecule, the GI50 [34] was > 100 µM (inactive), the GI50 [35] was 32.3 µM (inactive) and the GI50 [36] was > 100 µM (inactive). The GI50 [37] was 99.1 µM (inactive), the GI50 [38] was > 100 µM (inactive) and the GI50 [39] was 62.5 µM (inactive). The GI50 [40] was 88.1 µM (inactive), the GI50 [41] was 41.1 µM (inactive) and the GI50 [42] was 82.8 µM (inactive). The GI50 [43] was > 100 µM (inactive), the GI50 [44] was 22.2 µM (inactive) and the GI50 [45] was 72.6 µM (inactive). For the same molecule, the GI50 [46] was > 100 µM (inactive), the GI50 [47] was > 100 µM (inactive) and the GI50 [48] was 6.05 µM (inactive). For the same molecule, the GI50 [49] was 24.8 µM (inactive), the GI50 [50] was 31.4 µM (inactive) and the GI50 [51] was 52 µM (inactive). The GI50 [52] was 28.8 µM (inactive), the GI50 [53] was > 100 µM (inactive) and the GI50 [54] was 45.8 µM (inactive). The GI50 [55] was > 100 µM (inactive) and the GI50 [56] was > 100 µM (inactive).
For Fc1ccc2c(c1)cc1ccc3cccc4ccc2c1c34, the GI50 [1] was > 100 µM (inactive), the GI50 [2] was > 100 µM (inactive) and the GI50 [3] was > 100 µM (inactive). For the same molecule, the GI50 [4] was > 100 µM (inactive), the GI50 [5] was > 100 µM (inactive) and the GI50 [6] was > 100 µM (inactive). The GI50 [7] was > 100 µM (inactive), the GI50 [8] was > 100 µM (inactive) and the GI50 [9] was > 100 µM (inactive). The GI50 [10] was > 100 µM (inactive), the GI50 [11] was 5.02 µM (inactive) and the GI50 [57] was > 100 µM (inactive). The GI50 [12] was > 100 µM (inactive), the GI50 [14] was > 100 µM (inactive) and the GI50 [15] was > 100 µM (inactive). For the same molecule, the GI50 [16] was > 100 µM (inactive), the GI50 [17] was > 100 µM (inactive) and the GI50 [18] was > 100 µM (inactive). For the same molecule, the GI50 [19] was > 100 µM (inactive), the GI50 [20] was > 100 µM (inactive) and the GI50 [21] was > 100 µM (inactive). The GI50 [22] was > 100 µM (inactive), the GI50 [23] was > 100 µM (inactive) and the GI50 [24] was > 100 µM (inactive). For the same molecule, the GI50 [25] was > 100 µM (inactive), the GI50 [26] was > 100 µM (inactive) and the GI50 [27] was > 100 µM (inactive). For the same molecule, the GI50 [28] was > 100 µM (inactive), the GI50 [58] was > 100 µM (inactive) and the GI50 [29] was > 100 µM (inactive). For the same molecule, the GI50 [31] was > 100 µM (inactive), the GI50 [32] was > 100 µM (inactive) and the GI50 [33] was > 100 µM (inactive). The GI50 [34] was > 100 µM (inactive), the GI50 [35] was > 100 µM (inactive) and the GI50 [37] was > 100 µM (inactive). For the same molecule, the GI50 [38] was > 100 µM (inactive), the GI50 [39] was > 100 µM (inactive) and the GI50 [40] was > 100 µM (inactive). The GI50 [41] was > 100 µM (inactive), the GI50 [42] was > 100 µM (inactive) and the GI50 [43] was > 100 µM (inactive). The GI50 [44] was > 100 µM (inactive), the GI50 [45] was > 100 µM (inactive) and the GI50 [46] was > 100 µM (inactive). The GI50 [47] was > 100 µM (inactive), the GI50 [48] was > 100 µM (inactive) and the GI50 [49] was > 100 µM (inactive). The GI50 [59] was > 100 µM (inactive), the GI50 [50] was > 100 µM (inactive) and the GI50 [51] was > 100 µM (inactive). The GI50 [52] was > 100 µM (inactive), the GI50 [53] was > 100 µM (inactive) and the GI50 [54] was > 100 µM (inactive). The GI50 [55] was > 100 µM (inactive) and the GI50 [56] was > 100 µM (inactive).
In the case of N#CCCN(CCC#N)c1ccc(/C=C(/NC(=O)Nc2ccccc2Cl)NC(=O)c2cc([N+](=O)[O-])ccc2Cl)cc1, the GI50 [3] is reported as > 100 µM (inactive), the GI50 [4] is reported as 42.2 µM (inactive) and the GI50 [5] is reported as > 100 µM (inactive). For the same molecule, the GI50 [6] was 17.3 µM (inactive), the GI50 [7] was > 100 µM (inactive) and the GI50 [8] was 56.1 µM (inactive). The GI50 [9] was > 100 µM (inactive), the GI50 [10] was > 100 µM (inactive) and the GI50 [11] was > 100 µM (inactive). For the same molecule, the GI50 [57] was > 100 µM (inactive), the GI50 [12] was > 100 µM (inactive) and the GI50 [13] was greater than 100 µM. The GI50 [15] was > 100 µM (inactive), the GI50 [16] was > 100 µM (inactive) and the GI50 [17] was > 100 µM (inactive). The GI50 [19] was > 100 µM (inactive), the GI50 [20] was 64.6 µM (inactive) and the GI50 [21] was > 100 µM (inactive). The GI50 [22] was > 100 µM (inactive), the GI50 [23] was > 100 µM (inactive) and the GI50 [24] was > 100 µM (inactive). The GI50 [25] was > 100 µM (inactive), the GI50 [26] was > 100 µM (inactive) and the GI50 [27] was 42 µM (inactive). For the same molecule, the GI50 [28] was > 100 µM (inactive), the GI50 [58] was > 100 µM (inactive) and the GI50 [31] was 44.1 µM (inactive). The GI50 [32] was > 100 µM (inactive), the GI50 [33] was > 100 µM (inactive) and the GI50 [34] was > 100 µM (inactive). For the same molecule, the GI50 [35] was 58.5 µM (inactive), the GI50 [36] was 52.4 µM (inactive) and the GI50 [37] was > 100 µM (inactive). For the same molecule, the GI50 [38] was > 100 µM (inactive), the GI50 [39] was > 100 µM (inactive) and the GI50 [40] was > 100 µM (inactive). For the same molecule, the GI50 [41] was > 100 µM (inactive), the GI50 [42] was > 100 µM (inactive) and the GI50 [43] was > 100 µM (inactive). For the same molecule, the GI50 [44] was > 100 µM (inactive), the GI50 [45] was > 100 µM (inactive) and the GI50 [46] was > 100 µM (inactive). The GI50 [47] was > 100 µM (inactive), the GI50 [49] was > 100 µM (inactive) and the GI50 [59] was 42.4 µM (inactive). The GI50 [50] was > 100 µM (inactive), the GI50 [51] was > 100 µM (inactive) and the GI50 [52] was > 100 µM (inactive). For the same molecule, the GI50 [54] was 57.8 µM (inactive), the GI50 [55] was 55.7 µM (inactive) and the GI50 [56] was > 100 µM (inactive).
